Results taken from patent US6337397B1, “Pyrimidine derivatives and their salts, useful for making benzoxazepine derivatives” (Suntory Limited, priority 1995, dated 2002).
Read-outs that look alike come from different tables or passages of the source.

Columns and labels:
male Wistar rats = assay: Anticonflict action, NaCl-Lick conflict method; assay type: in vivo; settings: Rattus norvegicus, po, 1 hour before the test; number of licks in 5 minutes of 2% saline; rats deprived of water for 48 hours; read-out: Minimum effective dosage
Description: The anticonflict action of the compounds of the general formulae (I), (II), and (III) was evaluated in accordance with the NaCl-Lick conflict method of Tanga et al. (Pharmacol., Biochem., Behav., vol. 32, pp. 773-776, 1989). That is, six-week old male Wistar rats in groups of six to 10 were deprived of water for 48 hours and placed in an experimental apparatus placed in a soundproof box (apparatus made of acrylic resin, 20×20×30 cm, provided with a drinking outlet having a diameter of 1 cm at height of 8 cm from the floor, designed to be able to measure the number of drops per unit hour by a drinkometer), and the anticonflict action of the medicament was evaluated using as an indicator the number of drops (number of licks) in 5 minutes from the start of drinking of 2% saline. The tested medicament was orally administered in an amount of 0.2 ml/100 g body weight 1 hour before the start of the test.

dopamine D2 receptor = molecular target: T1, dopamine D2 receptor (Rattus norvegicus, UniProt P61169); assay: Affinity with dopamine D2 receptor, [3H]Raclopride binding; set-up: species or system male Wistar rats; settings: 1.0 nM [3H]Raclopride, rat corpus striatum preparation, 25° C., 60 minutes
T1 construct: the corpus striatums excised from male Wistar rats were homogenized; from tissue; host or cells: rat corpus striatum membrane homogenate
T1 sequence (P61169 whole entry): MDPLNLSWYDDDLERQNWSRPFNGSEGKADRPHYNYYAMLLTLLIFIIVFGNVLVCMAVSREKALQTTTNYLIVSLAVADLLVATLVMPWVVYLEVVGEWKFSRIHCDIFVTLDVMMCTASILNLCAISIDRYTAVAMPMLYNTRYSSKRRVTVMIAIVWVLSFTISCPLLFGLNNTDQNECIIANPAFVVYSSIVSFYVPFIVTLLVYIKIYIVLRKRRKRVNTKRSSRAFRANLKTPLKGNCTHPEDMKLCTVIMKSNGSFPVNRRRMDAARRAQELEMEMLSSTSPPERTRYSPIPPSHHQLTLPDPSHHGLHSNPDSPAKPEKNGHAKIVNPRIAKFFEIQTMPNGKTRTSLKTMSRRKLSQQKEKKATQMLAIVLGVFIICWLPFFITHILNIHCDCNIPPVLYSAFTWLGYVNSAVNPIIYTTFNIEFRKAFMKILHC
Description: The affinity of the compounds of the general formulas (I), (II), and (III) with a dopamine D2 receptor was evaluated in accordance with the method of Kakohler et al. (Biochem. Pharmacol., vol. 34, pp. 2251-2259, 1985). That is, the corpus striatums excised from male Wistar rats were homogenized with the addition of 120 mM sodium chloride, 5 mM potassium chloride, 2 mM calcium chloride, 1 mM magnesium chloride, and 0.01% ascorbic acid contained in 50 mM tris-phosphate buffer (pH 7.7). The homogenate was centrifuged at […] and 35000×g for 10 minutes. The same buffer was added to the resultant precipitate,then this was homogenized again and was similarly centrifuged to obtain the precipitate. The same buffer was added to this precipitate which was then again homogenized to prepare the dopamine D2 receptor.
For the binding experiment, use was made of 1.0 nM of [3H]3,5-dichloro-N-[(1-ethyl-2-pyrrolidinyl)methyl]-6-hydroxy-o-anisamide (Raclopride), various concentrations of test samples were added to a system of 0.34 mg/ml of protein or a total of 0.25 ml, incubation was performed at 25° C. for 60 minutes, then the radioactivity was measured in the same way as in the Evaluation Example 1 to find the degree of binding.
The 50% inhibiting concentration of binding affinity (IC50) was calculated from the degrees of binding at various concentrations of the added samples. […] The IC50 values of typical compounds are shown together with the IC50 values for the serotonin receptor.

[1] = molecular target: T2, serotonin 5-HT1A receptor (Rattus norvegicus, UniProt P19327); assay: Affinity with serotonin receptor, [3H]8-OH-DPAT binding; set-up: species or system male Wistar rats; settings: for D2/5-HT1A: ratio of IC50 (D2) to IC50 (5-HT1A)
T2 construct: the hippocampuses extracted from male Wistar rats were homogenized; from tissue; host or cells: rat hippocampus membrane homogenate
T2 sequence (P19327 1-422): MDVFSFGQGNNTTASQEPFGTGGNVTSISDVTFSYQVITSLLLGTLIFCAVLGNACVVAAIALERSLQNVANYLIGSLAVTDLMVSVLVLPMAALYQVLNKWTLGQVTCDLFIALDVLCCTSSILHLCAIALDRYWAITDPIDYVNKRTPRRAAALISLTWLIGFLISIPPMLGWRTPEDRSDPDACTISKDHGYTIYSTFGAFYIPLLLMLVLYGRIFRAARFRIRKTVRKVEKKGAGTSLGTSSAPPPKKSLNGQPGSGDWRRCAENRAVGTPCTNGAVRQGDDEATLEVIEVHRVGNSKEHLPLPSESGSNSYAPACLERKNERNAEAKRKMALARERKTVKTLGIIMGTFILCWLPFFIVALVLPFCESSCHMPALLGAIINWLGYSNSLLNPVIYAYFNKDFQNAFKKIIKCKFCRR
Description: The affinity of the compounds of the general formulas (I), (II), and (III) with a serotonin receptor was evaluated in accordance with the method of S. T. Peuroutka et al. (J. Neurochem., vol. 47, pp. 529-540, 1986). That is, the hippocampuses extracted from male Wistar rats were homogenized while adding 50 mM tris-phosphate buffer (pH 7.7). The homogenate was centrifuged at […] and 40000×g for 10 minutes. The same buffer was added to the obtained precipitate, then this was homogenized again and was similarly centrifuged to obtain the precipitate. This homogenization-centrifugation operation was repeated two times to obtain a final precipitate to which was then added 10 uM of N-methyl-N-2-propynylbenzylamine (Pargyline), 4 mM of calcium chloride, and 0.1% ascorbic acid contained in a 50 mM tris-phosphate buffer (ph 7.7). This was then homogenized to prepare the serotonin receptor.
For the binding experiment, 0.4 nM of [3H]2-di-n-propylamino-8-hydroxy-1,2,3,4-tetrahydronapthalene (8-DPAT; 8-hydroxy-N,N-dipropyl-2-aminotetetrilin) was used, various concentrations of test samples were added to a system of 0.25 mg/ml of protein or a total of 0.25 ml, and these were incubated at 25° C. for 30 minutes. A Whatman GF/C filter was used to filter each of the reaction solutions, then the filter was washed by 20 mM tris-phosphate buffer (pH 7.7). The serotonin receptor was trapped by the filter and the radio activity of the 8-OH-DAPT bonded to it was measured to find the degree of binding. The 50% inhibiting concentration of binding affinity (IC50) was calculated from the degrees of binding in the various sample concentrations. […] The IC50 values of typical compounds are shown together with the IC50 values with respect to the dopamine D2 receptor.

Wistar male rats = assay: Ischemic brain tissue damage, transient right middle cerebral artery occlusion (MCAO) model; assay type: in vivo; settings: Rattus norvegicus, sc, 240 h; s.c., immediately after occlusion; 60 minutes occlusion; brain tissue damage 10 days after restart of blood flow (number of benzodiazepine bindings); read-out: Minimum effective dosage
Description: The evaluation of the efficacy on ischemic brain damage of the compounds of the general formulae (I), (II), and (III) was performed using the transient right middle cerebral artery occlusion (MCAO) model of Koizumi et al. (Jap. J. Stroke, vol. 8, pp. 1 to 8, 1986). That is, 10 to 11 week old Wistar male rats were used and the right middle cerebral artery was temporarily obstructed for 60 minutes. 10 days after the restart of the blood flow, the brains were excised and the degree of brain tissue damage of the cerebral cortex and corpus striatum of the obstructed side were evaluated by the damage marker of the number of benzodiazepine bindings. The tested drugs were dissolved in physiological saline and administered subcutaneously at the backs of the rats immediately after the right middle cerebral artery occlusion. As a control, physiological saline of […] body weight was similarly administered.

[2] = Acute toxicity after oral administration; settings: rat, in vivo; 24 hours after oral administration, six-week old male rats
Text: This value is over 50 times or more of the expected clinical dosage and therefore, it is judged that the safety of the compounds according to the present invention is high.

[3] = 0.4 nM [3H]8-OH-DPAT, rat hippocampus preparation, 25° C., 30 minutes, read-out: IC50 (5-HT1A)

O=C1c2ccccc2OC=CN1CCCCN1CCN(c2ccccn2)CC1 [Example 32, 4,5-dihydro-4-(4-(4-(2-pyridyl)piperazin-1-yl)butyl)-1,4-benzoxazepin-5-one]
melting point: 150 to 151 °C | minimal effective dose (male Wistar rats): 30 mg/kg

COc1ccc2c(c1)OC=CN(CCCCN1CCN(c3ncccn3)CC1)C2=O [Example 33, 4,5-dihydro-8-methoxy-4-(4-(4-(2-pyrimidinyl)piperazin-1-yl)butyl)-1,4-benzoxazepin-5-one]
melting point: 156 to 158 °C | minimal effective dose (male Wistar rats): 10 mg/kg

CC1=COc2ccccc2C(=O)N1CCCCN1CCN(c2ncccn2)CC1 [Example 34, 4,5-dihydro-3-methyl-4-(4-(4-(2-pyrimidinyl)piperazin-1-yl)butyl)-1,4-benzoxazepin-5-one]
melting point: 141 to 142 °C | minimal effective dose (male Wistar rats): 30 mg/kg

CC1=COc2ccccc2C(=O)N1CCCCN1CCN(c2cccc(Cl)n2)CC1 [Example 35, 4-(4-(4-(2-chloropyridin-6-yl)piperazin-1-yl)butyl)-4,5-dihydro-3-methyl-1,4-benzoxazepin-5-one]
melting point: 166 to 168 °C | IC50 (dopamine D2 receptor): 294 nM | IC50 [1, 3]: 1.5 nM | D2/5-HT1A [1]: 196

CC1=COc2cc(C)ccc2C(=O)N1CCCCN1CCN(c2cccc(C)c2)CC1 [Example 37]
melting point: 113 to 115 °C

COc1ccccc1N1CCN(CCCCN2C(=O)c3ccc(C)cc3OC=C2C)CC1 [Example 38, 4,5-dihydro-3,8-dimethyl-4-(4-(4-(2-methoxyphenyl)piperazin-1-yl)butyl)-1,4-benzoxazepin-5-one]
melting point: 88 to 90 °C

CC1=COc2ccc(C)cc2C(=O)N1CCCCN1CCN(c2ncc(F)c(N)n2)CC1 [Example 40, 4-(4-(4-(4-amino-5-fluoropyrimidin-2-yl)piperazin-1-yl)butyl)-4,5-dihydro-3,7-dimethyl-1,4-benzoxazepin-5-one]
melting point: 243 to 245 °C

O=C1c2ccccc2OC=C(Cl)N1CCCCN1CCN(c2ccccn2)CC1 [Example 46, 3-chloro-4,5-dihydro-4-(4-(4-(2-pyridyl)piperazin-1-yl)butyl)-1,4-benzoxazepin-5-one]
minimal effective dose (male Wistar rats): 10 mg/kg | minimal effective dose (Wistar male rats): 0.3 mg/kg | IC50 (dopamine D2 receptor): 51 nM | IC50 [1, 3]: 0.77 nM | D2/5-HT1A [1]: 67

O=C1c2ccc(Cl)cc2OC=C(Cl)N1CCCCN1CCN(c2ccccn2)CC1 [Example 48, 3,8-dichloro-4,5-dihydro-4-(4-(4-(2-pyridyl)piperazin-1-yl)butyl)-1,4-benzoxazepin-5-one]
minimal effective dose (male Wistar rats): 30 mg/kg | minimal effective dose (Wistar male rats): 1 mg/kg | IC50 (dopamine D2 receptor): 233 nM | IC50 [1, 3]: 1.2 nM | D2/5-HT1A [1]: 194

O=C1c2ccccc2OC=C(Cl)N1CCCCN1CC=C(c2ncccn2)CC1 [Example 56, 3-chloro-4,5-dihydro-4-(4-(4-(2-pyrimidinyl)-1,2,5,6-tetrahydropyridin-1-yl)butyl)-1,4-benzoxazepin-5-one]
minimal effective dose (Wistar male rats): 1 mg/kg | IC50 (dopamine D2 receptor): 494 nM | LD50 at 24 h [2]: ≥ 100 mg/kg | IC50 [1]: 1.38 nM | D2/5-HT1A [1]: 358

O=C1c2ccc(Cl)cc2OC=C(Cl)N1CCCCN1CC=C(c2ncccn2)CC1 [Example 59, 3,8-dichloro-4,5-dihydro-4-(4-(4-(2-pyrimidinyl)-1,2,5,6-tetrahydropyridin-1-yl)butyl)-1,4-benzoxazepin-5-one]
minimal effective dose (Wistar male rats): 1 mg/kg | IC50 (dopamine D2 receptor): 341 nM | IC50 [1]: 0.65 nM | D2/5-HT1A [1]: 525

O=C1c2ccc(Cl)cc2OC=C(Cl)N1CCCCN1CCC(c2ncccn2)CC1 [Example 60, 3,8-dichloro-4,5-dihydro-4-(4-(4-(2-pyrimidinyl)piperidin-1-yl)butyl)-1,4-benzoxazepin-5-one]
minimal effective dose (Wistar male rats): 1 mg/kg | IC50 (dopamine D2 receptor): 1280 nM | IC50 [1, 3]: 1.11 nM | D2/5-HT1A [1]: 1153

COc1ccc2c(c1)OC=C(Cl)N(CCCCN1CC=C(c3ncccn3)CC1)C2=O [Example 61, 3-chloro-4,5-dihydro-8-methoxy-4-(4-(4-(2-pyrimdinyl)-1,2,5,6-tetrahydropyridin-1-yl)butyl)-1,4-benzoxazepin-5-one]
minimal effective dose (Wistar male rats): 1 mg/kg | IC50 (dopamine D2 receptor): 256 nM | IC50 [1]: 0.68 nM | D2/5-HT1A [1]: 376

O=C1c2ccccc2OC=C(Cl)N1CCCCN1CC=C(c2ccccn2)CC1 [Example 82]
minimal effective dose (male Wistar rats): 30 mg/kg | minimal effective dose (Wistar male rats): 0.3 mg/kg | IC50 (dopamine D2 receptor): 128 nM | IC50 [1, 3]: 0.47 nM | D2/5-HT1A [1]: 84

CC1=COc2ccccc2C(=O)N1CCCCN1CC=C(c2ccccn2)CC1 [Example 84, 4,5-dihydro-3-methyl-4-(4-(4-(2-pyridyl)-1,2,5,6-tetrahydropyridin-1-yl)butyl)-1,4-benzoxazepin-5-one]
minimal effective dose (Wistar male rats): 0.3 mg/kg
